Measurements reported in patent US11629138B2, “Microbiocidal picolinamide derivatives” (Syngenta Participations AG, priority 2017, dated 2023).

Experiments:
[1] = system: Glomerella lagenarium (Colletotrichum lagenarium); assay: Glomerella lagenarium (Colletotrichum lagenarium) / liquid culture (anthracnose); type: cell-based; details: Colletotrichum orbiculare; 200 ppm in the formulation; PDB broth, 24° C., photometric, 3 to 4 days after application; vs untreated control; read-out: disease control (inhibition of growth)
Experimental: (§1) Glomerella lagenarium (Colletotrichum lagenarium)/Liquid Culture (Anthracnose) Conidia of the fungus from cryogenic storage are directly mixed into nutrient broth (PDB potato dextrose broth). After placing a (DMSO) solution of test compound into a microtiter plate (96-well format), the nutrient broth containing the fungal spores is added. The test plates are incubated at 24° C. and the inhibition of growth is measured photometrically 3 to 4 days after application.

[2] = system: Mycosphaerella arachidis (Cercospora arachidicola); assay: Mycosphaerella arachidis (Cercospora arachidicola) / liquid culture (early leaf spot); type: cell-based; details: 200 ppm in the formulation, PDB broth, 24° C., photometric, 4-5 days after application, vs untreated control, read-out: disease control (inhibition of growth)
Experimental: as §1, with “Mycosphaerella arachidis (Cercospora arachidicola)/Liquid” for “Glomerella lagenarium (Colletotrichum lagenarium)/Liquid”, “(Early Leaf Soot)” for “(Anthracnose)”, “determined” for “measured”, “4-5” for “3 to 4”

[3] = system: Puccinia recondita f. so. tritici; assay: Puccinia recondita f. sp. tritici / wheat / leaf disc preventative (brown rust); type: in vivo; details: foliar, 200 ppm in the formulation, wheat leaf segments cv. Kanzler, 7-9 days after application, vs untreated control, read-out: disease control
Experimental: Puccinia recondita f. so. tritici/Wheat/Leaf Disc Preventative (Brown Rust)
Wheat leaf segments cv. Kanzler are placed on agar in multiwell plates (24-well format) and sprayed with the formulated test compound diluted in water. The leaf disks are inoculated with a spore suspension of the fungus 1 day after application. The inoculated leaf segments are incubated at 19° C. and 75% rh under a light regime of 12 h light/12 h darkness in a climate cabinet and the activity of a compound is assessed as percent disease control compared to untreated when an appropriate level of disease damage appears in untreated check leaf segments (7-9 days after application).

[4] = system: Monographella nivalis (Microdochium nivale); assay: Monographella nivalis (Microdochium nivale) / liquid culture (foot rot cereals); type: cell-based; details: 200 ppm in the formulation, PDB broth, 24° C., photometric, 4-5 days after application, vs untreated control, read-out: disease control (inhibition of growth)
Experimental: as §1, with “Monographella nivalis (Microdochium nivale)/Liquid” for “Glomerella lagenarium (Colletotrichum lagenarium)/Liquid”, “(Foot Rot Cereals)” for “(Anthracnose)”, “determined” for “measured”, “4-5” for “3 to 4”

[5] = system: Botryotinia fuckeliana (Botrytis cinerea); assay: Botryotinia fuckeliana (Botrytis cinerea) liquid culture (gray mould); type: cell-based; details: 200 ppm in the formulation, Vogels broth, 24° C., photometric, 3-4 days after application, vs untreated control, read-out: disease control (inhibition of growth)
Experimental: as §1, with “Botryotinia fuckeliana (Botrytis cinerea) Liquid” for “Glomerella lagenarium (Colletotrichum lagenarium)/Liquid”, “(Gray Mould)” for “(Anthracnose)”, “(Vogels” for “(PDB potato dextrose”, “determined” for “measured”, “3-4” for “3 to 4”

[6] = system: Magnaporthe grisea (Pyricularia oryzae); assay: whole plant or invertebrate; type: in vivo; details: foliar, read-out: disease control
[7] = system: Mycosphaerella graminicola (Septoria tritici); assay: Mycosphaerella graminicola (Septoria tritici) / liquid culture (Septoria blotch); type: cell-based; details: Zymoseptoria tritici; 200 ppm in the formulation; PDB broth, 24° C., photometric, 4 to 5 days after application; vs untreated control; read-out: disease control (inhibition of growth)
Experimental: Mycosphaerella graminicola (Septoria tritici)/Liquid Culture (Septoria Blotch) Conidia of the fungus from cryogenic storage are directly mixed into nutrient broth (PDB potato dextrose broth). After placing a (DMSO) solution of test compound into a microtiter plate (96-well format), the nutrient broth containing the fungal spores is added. The test plates are incubated at 24° C. and the inhibition of growth is determined photometrically 4 to 5 days after application.

[8] = system: Phaeosphaeria nodorum (Setoria nodorum); assay: Phaeosphaeria nodorum (Septoria nodorum) / wheat / leaf disc preventative (glume blotch); type: in vivo; details: Parastagonospora nodorum, foliar, 200 ppm in the formulation, wheat leaf segments cv. Kanzler, 5-7 days after application, vs untreated control, read-out: disease control
Experimental: Phaeosphaeria nodorum (Setoria nodorum)/Wheat/Leaf Disc Preventative (Glume Blotch) Wheat leaf segments cv. Kanzler are placed on agar in a multiwell plate (24-well format) and sprayed with the formulated test compound diluted in water. The leaf disks are inoculated with a spore suspension of the fungus 2 days after application. The inoculated test leaf disks are incubated at 20° C. and 75% rh under a light regime of 12 h light/12 h darkness in a climate cabinet and the activity of a compound is assessed as percent disease control compared to untreated when an appropriate level of disease damage appears in untreated check leaf disks (5-7 days after application).

Pythium ultimum = Pythium ultimum / liquid culture (seedling damping off); type: cell-based; details: Globisporangium ultimum; 200 ppm in the formulation; PDB broth, 24° C., photometric, 2-3 days after application; vs untreated control; read-out: disease control (inhibition of growth)
Experimental: Pythium ultimum/Liquid Culture (Seedling Damping Off) Mycelia fragments and oospores of a newly grown liquid culture of the fungus are directly mixed into nutrient broth (PDB potato dextrose broth). After placing a (DMSO) solution of test compound into a microtiter plate (96-well format), the nutrient broth containing the fungal mycelia/spore mixture is added. The test plates are incubated at 24° C. and the inhibition of growth is determined photometrically 2-3 days after application.

COc1ccnc(C(=O)N[C@@H](C)C(=O)OC(C)C(C)c2sc3ccccc3c2C)c1O (stereo partly drawn) [I.as.001, [1-methyl-2-(3-methylbenzothiophen-2-yl)propyl] (2S)-2-[(3-hydroxy-4-methoxy-pyridine-2-carbonyl)amino]propanoate]
≥ 80%: inhibition at 200 ppm [1] | inhibition at 200 ppm [2] | pest or weed control at 200 ppm [3] | inhibition at 200 ppm [4] | inhibition at 200 ppm [5] | pest or weed control at 200 ppm [6] | inhibition at 200 ppm [7] | pest or weed control at 200 ppm [8]

COc1ccnc(C(=O)N[C@@H](C)C(=O)OC(C)C(C)n2ccc3c(F)ccc(Br)c32)c1OC(C)=O (stereo partly drawn) [I.bd.041, [2-(7-bromo-4-fluoro-indol-1-yl)-1-methyl-propyl] (2S)-2-[(3-acetoxy-4-methoxy-pyridine-2-carbonyl)amino]propanoate]
≥ 80%: inhibition at 200 ppm [1] | inhibition at 200 ppm [2] | pest or weed control at 200 ppm [3] | inhibition at 200 ppm [4] | pest or weed control at 200 ppm [6] | inhibition at 200 ppm [7] | pest or weed control at 200 ppm [8]

COc1ccnc(C(=O)N[C@@H](C)C(=O)OC(C)C(C)c2nc3ccccc3s2)c1O (stereo partly drawn) [I.e.001, [2-(1,3-benzothiazol-2-yl)-1-methyl-propyl] (2S)-2-[(3-hydroxy-4-methoxy-pyridine-2-carbonyl)amino] propanoate]
≥ 80%: inhibition at 200 ppm [1] | inhibition at 200 ppm [2] | pest or weed control at 200 ppm [3] | inhibition at 200 ppm [4] | inhibition at 200 ppm [5] | pest or weed control at 200 ppm [6] | inhibition at 200 ppm [7]

COc1ccnc(C(=O)N[C@@H](C)C(=O)OC(C)C(C)n2ccc3cc(Cl)ccc32)c1O (stereo partly drawn) [I.y.001, [2-(5-chloroindol-1-yl)-1-methyl-propyl] (2S)-2-[(3-hydroxy-4-methoxy-pyridine-2-carbonyl)amino]propanoate]
≥ 80%: inhibition at 200 ppm [1] | inhibition at 200 ppm [2] | pest or weed control at 200 ppm [3] | inhibition at 200 ppm [4] | inhibition at 200 ppm [5] | inhibition at 200 ppm (Pythium ultimum) | inhibition at 200 ppm [7]
